Earlier results on one molecule are cited in patent publication US20060057232A1, “Method of altering age perception” (priority 2004, published 2006).

For the data set, the system named is sensitivity of observers to light. To be noted: (26).

For `c1ccncc1` [pyridine], the “effect on sensitivity of observers to light” value is recorded as “increase sensitivity of observers to light”.
